# Laboratory results reported in publication PMC11766867, “Novel 2-Thiazolylhydrazone with Druggable Properties for Antifungal Application” (Journal of Fungi, 2025).
# Like-named read-outs stand apart in the source and are kept apart here.
# Tests used:
# chorioallantoic membrane = experiment: HET-CAM assay (Hen's Egg Test on the Chorioallantoic Membrane), German protocol; format: in vivo, Gallus gallus domesticus; conditions: RW3 at 100 µM; for Irritation Score: 300 µL on chorioallantoic membrane, 300 s, mean of six eggs; for Classification (irritation potential): HET-CAM, German protocol
# Protocol: Gallus gallus domesticus eggs (n = 3) at the eighth day of embryonic development were incubated at 37 ± 2 °C and 50% humidity until the test. On the tenth day, the solutions of RW3 (100 µM), 1% DMSO in saline (diluent), 0.1 mol/L NaOH (positive control), and saline solution (negative control) were placed on the chorioallantoic membrane. Following the application of 300 µL of each solution, according to the German protocol, the changes in the membrane were recorded for 300 s, indicating the time of onset of each observed phenomenon (hemorrhage, lysis, and coagulation) and using the following formula to calculate the Irritation Score (IS) (Equation (1)). Each experiment was repeated two times.IS = (301 − sH)/300 × 5 + (301 − sL)/300 × […] + (301 − sC)/300 × 9,(1) where H = hemorrhage, L—lysis, C = coagulation, and s = start second.
# Additionally, to assess the possibility of irritation caused by RW3, the Hen’s Egg Test on the Chorioallantoic Membrane (HET-CAM) was performed. The HET-CAM assay is an in vivo semiquantitative test to evaluate the anti-inflammatory potential and anti-irritant properties, as well as the ocular toxicity of compounds/formulations. The benefits of this test include its simplicity, rapid execution, ease of use, and relatively low cost.
# [1] = test system: Candidozyma (Candida) auris COLO 01; experiment: organism not typed; format: cell-based; conditions: 35 °C, 48 h, visual endpoint; for MIC: read-out: Minimal Inhibitory Concentration (MIC) C. auris
# Protocol: (§1) Broth microdilution testing was conducted following the guidelines in the CLSI document M27-A3 (2008) with modifications. Briefly, the following yeast were used in the present study: C. albicans SC5314, C. tropicalis ATCC 750, Candidozyma (Candida) auris COLO 01, C. parapsilosis ATCC 22019, Pichia kudravzevii (C. krusei) ATCC 20298, C. gattii ATCC 24065, C. neoformans ATCC 24067, and S. brasiliensis (189). All fungus strains were stored at a temperature of −80 °C. Before conducting the experiments, the strains were cultivated on Sabouraud dextrose agar (HiMedia, Mumbai, India) at 35 °C to ensure their purity and viability. The yeast phase of S. brasiliensis was grown on brain–heart infusion agar (BHI; Difco, Detroit, MI, USA) with two successive passages of 7 days at 35 °C and CO2 5% [11]. The compounds were tested at concentrations of 0.125–250 µg/mL. For comparative antifungal controls, fluconazole (Sigma-Aldrich, St. Louis, MO, USA), itraconazole (Sigma-Aldrich, St. Louis, MO, USA), and caspofungine (Sigma-Aldrich, St. Louis, MO, USA) were included. The plates were incubated at 35 °C for 48 h for yeast and for 7 days for S. brasiliensis at 35 °C and CO2 5%. The tests were performed in triplicate. The endpoints were determined visually by comparison with the endpoints of the drug-free growth-control well. The value of the minimum inhibitory concentration (MIC) was defined as the lowest extract concentration at which the well was optically clear and was expressed in µg/mL.
# C. albicans SC5314 = experiment: Broth microdilution MIC (CLSI M27-A3 with modifications); format: cell-based; conditions: Candida albicans, 35 °C, 48 h, visual endpoint, read-out: Minimal Inhibitory Concentration (MIC) C. albicans
# Protocol: as §1
# C. gattii ATCC 24065 = experiment: as above; format: cell-based; conditions: Cryptococcus gattii, ATCC24065; 35 °C, 48 h, visual endpoint; read-out: Minimal Inhibitory Concentration (MIC) C. gattii
# Protocol: as §1
# C. neoformans ATCC 24067 = experiment: as above; format: cell-based; conditions: Cryptococcus neoformans, ATCC24067; 35 °C, 48 h, visual endpoint; read-out: Minimal Inhibitory Concentration (MIC) C. neoformans
# Protocol: as §1
# [2] = test system: C. parapsilosis ATCC 22019; experiment: as above; format: cell-based; conditions: Lodderomyces parapsilosis, ATCC22019; 35 °C, 48 h, visual endpoint; read-out: Minimal Inhibitory Concentration (MIC) C. parapsilosis
# Protocol: as §1
# C. tropicalis ATCC 750 = experiment: as above; format: cell-based; conditions: Candida tropicalis, ATCC750; 35 °C, 48 h, visual endpoint; read-out: Minimal Inhibitory Concentration (MIC) C. tropicalis
# Protocol: as §1
# [3] = test system: Pichia kudravzevii (C. krusei) ATCC 20298; experiment: as above; format: cell-based; conditions: ATCC20298, 35 °C, 48 h, visual endpoint, read-out: Minimal Inhibitory Concentration (MIC) P. kudravzevii
# Protocol: as §1
# S. brasiliensis (189) = experiment: Broth microdilution MIC (CLSI M27-A3 with modifications), yeast phase; format: cell-based; conditions: Sporothrix brasiliensis, 168 h, 7 days at 35 °C and CO2 5%, read-out: Minimal Inhibitory Concentration (MIC) S. brasiliensis
# Protocol: as §1, with “The value of the minimum inhibitory concentration (MIC) was defined as the lowest extract concentration at which the well was optically clear and was expressed in µg/mL.” left out
# [4] = Saturation shake-flask solubility method; format: physicochemical; conditions: for solubility at 24 h: aqueous USP buffer, thermodynamic from solid, n = 3, read-out: Average Solubility mg/mL (±SD)
# Protocol: The equilibrium solubility of RW3 samples was assessed using the shake-flask method. The samples were dispersed in buffers described in the United States Pharmacopeia at pH values of 2.0, 4.5, and 6.8. For each reported solubility result, three independent shake-flask experiments were carried out in parallel. For each experiment, the solid sample was added carefully using a spatula to 2 mL of the aqueous buffer in a glass vial, while stirring, until a heterogeneous system (solid sample and liquid) was obtained. The solution containing solid excess of the sample was then capped, and stirred at 37 °C, 100 rpm, for 24 h in orbital shaker (Tecnal, Campinas, Brazil). An aliquot of 1 mL of the suspension was centrifuged, and the supernatant was then collected and filtered through a 0.2 µm PVDF filter. The resulting solution was then diluted 200× in the mobile phase, and the concentration of the sample in each aliquot was measured by the HPLC method. The RW3 concentrations were determined by injections of 10 µL of the samples via HPLC, using a Waters Alliance system (New Castle, DE, USA). Chromatographic separations were obtained using a PhenoSphere-NEXT® 5 µm C18 column (150 mm; 4,6 mm; Phenomenex®, Torrance, CA, USA) at 40° C. The mobile phase (1 mL/min) was composed of phosphate buffer 20 mM pH 4.0 and acetonitrile (50:50 v/v). The wavelength was set at 308 nm. The HPLC method employed was evaluated for linearity, precision, accuracy, and selectivity.
# The determination of the solubility under physiological conditions, particularly considering the different pH levels throughout the gastrointestinal tract, is one of the most important biopharmaceutical parameters that must be generated during the early stages of developing a new drug for oral administration. In this study, the solubility determination of RW3 was carried out using the miniaturized shake flask test, as only a small amount of the compound under investigation was available. In the literature, there are publications that have successfully employed the miniaturized test.
# [5] = In vitro Caco-2 cytotoxicity (MTT, ISO 10993-5); format: cell-based, human; conditions: human, Caco-2 cells, 4 h, MTT, read-out: cell viability
# Protocol: (§2) In vitro cytotoxicity assays were carried out following the protocol outlined in the ISO 10993-5 guideline (ISO, 2022). The human colon carcinoma cell line, Caco-2 cells (from ATCC), were cultured in 96-well plates for 24 h at a seeding density of 2 × 10^4 cells/well. The RW3 compound was dissolved in DMEM without phenol to prepare samples of 10, 25, and 50 µg/mL concentrations. Six replicates of each concentration for RW3 were assessed. This range of concentrations was chosen for reasons associated with the subsequent permeability tests. The experiments began by replacing the culture medium in each well with 100 µL of sample or control solutions, followed by a 4 h incubation at 37 °C in a CO2 incubator. Then, the solutions in each well were aspirated, and the cells were further incubated for 2 h with 30 µL of MTT solution (5 mg/mL, Sigma–Aldrich Corp., St. Louis, MO, USA, in DMEM and PBS buffer, 9:1 v/v). Next, formazan crystals were solubilized with 70 µL of isopropyl alcohol acidified with hydrochloric acid and quantified spectrophotometrically at 570 and 690 nm (Spectra Fluor plate reader, Tecan, Grödig, Austria). Cell viability was calculated based on the measured absorbance relative to the absorbance of the cells exposed to the negative controls (DMEM), which represented 100% cell viability, and for the positive control, we employed DMSO 50% in DMEM, which represented 0% cell viability.
# Caco-2 cells [6] = experiment: In vitro Caco-2 cytotoxicity (MTT, ISO 10993-5); format: cell-based, human; conditions: 10, 25 and 50 µg/mL; non-cytotoxic if viability exceeds 70% (ISO 10993-5)
# Protocol: as §2
# [7] = In vitro Caco-2 permeability assay; format: in vitro ADME, human; conditions: human, Caco-2
# Protocol: (§3) The Caco-2 cells (from ATCC) were cultured in 12-well Transwell® (Corning Incorporated, New York, NY, USA) insert filters for 21 days at a seeding density of 5 × 10^4 cells/cm^2 to achieve confluence and differentiation. The integrity of the monolayer was examined by measuring the transepithelial electrical resistance (TEER) with an epithelial voltammeter Millicell-ERS (Merck SA—German, Darmstadt, Germany). Only cell monolayers with a TEER above […] were used for the transport assays.
# (§4) Transport experiments were conducted by adding 10 µg/mL RW3 in HBSS buffer at pH 6.8 to the apical compartments of the Transwell® plates (Corning, Corning, NY, USA), while the basolateral buffer was maintained at pH 7.4. The plates were agitated in an orbital shaker at 37 °C (100 rpm). Samples (100 µL) were collected from both the basolateral and apical sides at 30, 60, 90, 120, and 180 min. The apparent permeability coefficients (Papp, cm/s) were calculated using the Equation (2):Papp = […](2) where VR is the volume of the receiver compartment (basolateral or apical), DQ/Dt is the linear appearance rate of the compound on the receiver chamber (in ng/cm^3/s), A is the membrane surface area (cm^2), and C0 is the initial concentration in the donor compartment (ng/cm^3). This calculation requires that the sink conditions are fulfilled; therefore, only receiver concentrations below 10% of the donor concentration were employed in the calculations.
# Caco-2 cells [8] = experiment: In vitro Caco-2 permeability assay; format: in vitro ADME, human; conditions: high permeability: Papp > 10 × 10^−6 cm/s
# Protocol: as §3, §4
SMILES,Irritation Score (chorioallantoic membrane),Classification (irritation potential) (chorioallantoic membrane),MIC (C. albicans SC5314) [µg/mL],MIC (C. gattii ATCC 24065) [µg/mL],MIC (C. neoformans ATCC 24067) [µg/mL],MIC [2] [µg/mL],MIC (C. tropicalis ATCC 750) [µg/mL],MIC [3] [µg/mL],MIC [1] [µg/mL],MIC (S. brasiliensis (189)) [µg/mL],other results
"[Na+].[OH-] [0.1 M NaOH, NaOH, reference compound]",12.00,Severe irritant,,,,,,,,,
"CC[C@H](C)C[C@H](C)CCCCCCCCC(=O)N[C@H]1C[C@@H](O)[C@@H](NCCN)NC(=O)[C@@H]2[C@@H](O)CCN2C(=O)[C@H]([C@H](O)CCN)NC(=O)[C@H]([C@H](O)[C@@H](O)c2ccc(O)cc2)NC(=O)[C@@H]2C[C@@H](O)CN2C(=O)[C@H]([C@@H](C)O)NC1=O [Caspofungin, caspofungine]",,,,,,,,,,,Minimal Inhibitory Concentration (MIC) C. auris [1]: 0.05 µg/mL
"OC(Cn1cncn1)(Cn1cncn1)c1ccc(F)cc1F [Fluconazole, fluconazole, reference compound]",,,0.5,2,2,1,0.25,32,64,,
"CCC(C)n1ncn(-c2ccc(N3CCN(c4ccc(OCC5COC(Cn6cncn6)(c6ccc(Cl)cc6Cl)O5)cc4)CC3)cc2)c1=O (stereo not drawn) [Itraconazole, itraconazole, reference compound]",,,,,,,,,,0.5,
"CCOC(=O)Cc1csc(N/N=C(\C)C(=O)O)n1 [RW3, (E)-2-(2-(4-(2-Ethoxy-2-oxoethyl)thiazol-2-yl)hydrazineylidene)-Propanoic Acid]",0.76,Non-irritant,31.3,7.8,3.9,125,125,15.6,15.6,15.6,"solubility at 24 h ([4]; aqueous buffer, buffer pH 4.5, 37 °C): 1.01 ± 0.01 mg/mL; solubility at 24 h ([4]; aqueous buffer, buffer pH 6.8, 37 °C): 2.76 ± 0.09 mg/mL; solubility at 24 h ([4]; simulated gastric fluid, buffer pH 2.0, 37 °C): 0.67 ± 0.001 mg/mL; maximum daily dose borderline for high solubility classification (BCS, dose/S0 ratio less than 250) ([4]; extrapolated from lowest solubility (pH 2.0)): 168 mg; viability at 4 h, 10 µg/mL ([5]; Caco-2, 10 µg/mL): 100%; viability at 4 h, 25 µg/mL ([5]; Caco-2, 25 µg/mL): 88%; viability at 4 h, 50 µg/mL ([5]; Caco-2, 50 µg/mL): 86%; cytotoxic effects on the Caco-2 cell line (Caco-2 cells [6]): no cytotoxic effects; Papp A→B at 180 min, 10 µg/mL ([7]; apical−basolateral, 10 µg/mL, apical pH 6.8, basolateral pH 7.4, n = 3): 23.1 ± 9.69 ×10⁻⁶ cm/s; Papp B→A at 180 min, 10 µg/mL ([7]; basolateral−apical, 10 µg/mL, n = 3): 17.7 ± 7.19 ×10⁻⁶ cm/s; efflux ratio at 180 min, 10 µg/mL ([7]; read-out: Ratio Efflux Papp B-A/Papp A-B): 0.76; permeability characterization (BCS) (Caco-2 cells [8]): high permeability compound"
